Assay results from ChEMBL document CHEMBL3832061.

Tests used:
Homo sapiens = experiment: (§1) Pharmacokinetic parameters for Zolmitriptan following oral administration of Zolmitriptan tablets to subjects with different healthy conditions.; type: ADME, organism-based; conditions: in vivo
[1] = as §1; type: ADME, organism-based; conditions: human, in vivo

Tmax (Homo sapiens): 3 hr [middle of 4 runs] | Vd (Homo sapiens): 7 L/kg | CL/F [1]: 31.5 mL/min/kg | dose excreted ([1]; read-out: Excretion): 8%
SMILES: CN(C)CCc1c[nH]c2ccc(C[C@H]3COC(=O)N3)cc12 [ZOLMITRIPTAN]
